From ChEMBL document CHEMBL1142723, “Discovery of a potent, selective, and efficacious class of reversible alpha-ketoheterocycle inhibitors of fatty acid amide hydrolase effective as analgesics” (J Med Chem, 2005) come the findings set out here.

A value given as a limit tells only on which side of the number the result lay.

The target of experiment [1] is T1, Fatty-acid amide hydrolase 1 (Homo sapiens, UniProt O00519).
T1 sequence (O00519 whole entry): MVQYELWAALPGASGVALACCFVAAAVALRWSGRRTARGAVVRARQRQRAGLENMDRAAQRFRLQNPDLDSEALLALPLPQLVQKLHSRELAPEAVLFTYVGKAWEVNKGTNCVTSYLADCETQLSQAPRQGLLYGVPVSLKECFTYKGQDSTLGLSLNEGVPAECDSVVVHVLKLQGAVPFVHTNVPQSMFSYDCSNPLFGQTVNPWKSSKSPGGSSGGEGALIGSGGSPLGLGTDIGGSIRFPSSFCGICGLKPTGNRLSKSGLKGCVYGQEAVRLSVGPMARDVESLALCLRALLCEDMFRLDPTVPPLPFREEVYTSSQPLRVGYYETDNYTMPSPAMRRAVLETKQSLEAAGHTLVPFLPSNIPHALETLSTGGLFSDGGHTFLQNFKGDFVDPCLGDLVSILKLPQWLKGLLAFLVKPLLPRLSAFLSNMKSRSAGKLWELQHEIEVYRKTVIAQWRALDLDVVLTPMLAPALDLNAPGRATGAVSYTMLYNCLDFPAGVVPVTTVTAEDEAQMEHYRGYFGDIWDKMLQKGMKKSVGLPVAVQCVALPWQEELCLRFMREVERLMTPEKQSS
Kind of experiment: Inhibitory concentration against Fatty-acid amide hydrolase.

The target in experiment [2] is T2, Fatty-acid amide hydrolase 1 (Rattus norvegicus, UniProt P97612).
T2 sequence (P97612 whole entry): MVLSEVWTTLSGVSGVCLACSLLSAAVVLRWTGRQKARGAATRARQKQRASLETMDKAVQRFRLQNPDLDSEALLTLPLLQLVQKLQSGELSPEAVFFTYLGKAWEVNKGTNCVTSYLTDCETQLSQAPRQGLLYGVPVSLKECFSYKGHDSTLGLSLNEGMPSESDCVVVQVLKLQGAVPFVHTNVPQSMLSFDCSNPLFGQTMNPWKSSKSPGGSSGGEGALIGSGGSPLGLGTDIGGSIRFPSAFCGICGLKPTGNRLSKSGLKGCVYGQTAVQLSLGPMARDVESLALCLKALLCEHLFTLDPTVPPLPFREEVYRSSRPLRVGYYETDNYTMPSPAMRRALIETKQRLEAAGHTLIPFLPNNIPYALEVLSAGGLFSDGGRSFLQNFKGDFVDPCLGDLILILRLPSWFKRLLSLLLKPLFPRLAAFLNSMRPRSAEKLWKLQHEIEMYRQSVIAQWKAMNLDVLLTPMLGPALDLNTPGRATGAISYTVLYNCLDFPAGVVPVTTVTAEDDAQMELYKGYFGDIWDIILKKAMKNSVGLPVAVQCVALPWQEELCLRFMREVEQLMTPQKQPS
Briefly: Inhibitory constant determined against recombinant Fatty-acid amide hydrolase from rat expressed in Escherichia coli.

A short description of experiment [3]: Inhibitory concentration against KIAA1363 hydrolase.
Experiment [4] has as its target T3, Liver carboxylesterase 1 (Homo sapiens, UniProt P23141).
T3 sequence (P23141 whole entry): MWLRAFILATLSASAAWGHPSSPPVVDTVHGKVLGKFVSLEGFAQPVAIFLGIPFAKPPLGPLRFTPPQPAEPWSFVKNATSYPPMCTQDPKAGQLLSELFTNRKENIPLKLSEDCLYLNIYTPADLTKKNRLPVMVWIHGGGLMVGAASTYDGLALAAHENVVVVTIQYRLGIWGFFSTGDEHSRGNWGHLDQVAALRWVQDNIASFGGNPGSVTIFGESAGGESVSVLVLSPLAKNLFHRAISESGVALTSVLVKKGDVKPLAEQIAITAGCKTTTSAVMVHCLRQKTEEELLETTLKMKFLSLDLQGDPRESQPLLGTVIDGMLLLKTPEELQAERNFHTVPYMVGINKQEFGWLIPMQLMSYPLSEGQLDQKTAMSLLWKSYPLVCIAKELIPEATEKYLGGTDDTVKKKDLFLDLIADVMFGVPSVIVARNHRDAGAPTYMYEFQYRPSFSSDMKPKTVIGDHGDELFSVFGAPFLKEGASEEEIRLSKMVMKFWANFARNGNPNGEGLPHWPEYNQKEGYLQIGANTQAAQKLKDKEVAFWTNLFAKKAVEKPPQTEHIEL
Briefly: Inhibitory concentration against Triacylglycerol hydrolase.

Experiment [5] concerns the target T1, Fatty-acid amide hydrolase 1. Briefly: Inhibitory constant determined against recombinant Fatty-acid amide hydrolase from human expressed in COS-7 cells. The format is cell-based.

Consider `CCCCCCCC/C=C\CCCCCCCC(=O)C(F)(F)F`, for which the concentration for half-maximal inhibition (IC50) (usually the concentration needed to halve the response being measured) in experiment [1] came to 4500 nM; in experiment [3], 1100 nM; in experiment [4] it was 4800 nM. Besides, the Ki – broadly, the dissociation constant of the complex between target and ligand, obtained from inhibition or displacement – in experiment [2] is 80 nM.
Consider `CCCCCCCC/C=C\CCCCCCCC(=O)c1ncc(-c2ccccn2)o1`, for which the values for the half-inhibitory concentration (IC50) in experiment [1], in experiment [3] and in experiment [4] were 150 nM, > 100000 nM and > 100000 nM, respectively. The Ki in experiment [5] came out at 10 nM.
For `CCCCCCCC/C=C\CCCCCCCC(=O)c1ncco1`, the Ki in experiment [5] came out at 45 nM. For the same compound, the IC50 in experiment [3] is > 100000 nM.
For `CCCCCCCCC#CCCCCCCCC(=O)c1nc2ncccc2o1`, the IC50 in experiment [1] is 2 nM; in experiment [3] it was 20000 nM; in experiment [4], 500 nM. Also, in experiment [2], the Ki amounted to 0.14 nM.
